Test [1] deals with T1, YbhFSR (Escherichia coli, UniProt P0AFP9+P0AFQ2). Put plainly: whole-cell ethidium fluorescence efflux, knockout and complemented strains. The format is cell-based. On the set-up: gene ybhS; native transporter in whole cells; ybhF knockout, acrB ybhF double knockout and ybhF overexpression strains compared; YbhG and TolC probably also take part. To be noted: 2.5 μM EB preloaded, 25 mM glucose, 50 mM KPi pH 7.0, 5 mM MgSO4, 37 °C.

In test [2] the target is T1, YbhFSR. On the set-up: gene ybhS. To be noted: 100 μg/ml tetracycline, Mg2+ buffer pH 8.0.

With `CC[n+]1c(-c2ccccc2)c2cc(N)ccc2c2ccc(N)cc21` [ethidium bromide], the “whole-cell ethidium fluorescence efflux, knockout and complemented strains” value on YbhFSR [1] was “the ybhF gene knockout reduced the ethidium efflux capacity”. Take `CN(C)[C@@H]1C(=O)C(C(N)=O)=C(O)[C@@]2(O)C(=O)C3=C(O)c4c(O)cccc4[C@@](C)(O)[C@H]3C[C@@H]12` [tetracycline]: the “whole-cell tetracycline fluorescence efflux and accumulation, knockout strains” value on YbhFSR [2] was “knockout of ybhF decreased the efflux of tetracycline and increased the intracellular accumulation”.

The record behind these values is publication PMC7190983, “A Putative Efflux Transporter of the ABC Family, YbhFSR, in Escherichia coli Functions in Tetracycline Efflux and Na^+(Li^+)/H^+ Transport” (Frontiers in Microbiology, 2020).
